Measured values as given in patent EP2769974A1, “Novel AMPK activator” (Debiopharm S.A., priority 2013, dated 2014).

Legend:
[1] = tested on: HFD mice; assay: Hepatic lipids in HFD mice; type: in vivo; details: orally 60 mg/Kg twice daily for 40 days, to near control chow values
Experimental: Six-week-old male C57BI/6 mice were fed a high-fat diet or chow diet for 3 months. Then, HFD mice were treated orally with vehicle (Control HFD) or compound of formula (I) at 60 mg/Kg twice daily for 40 days. Chow fed mice were treated orally with vehicle alone (Control CD). At completion of this treatment period, mice were sacrificed and liver collected for determination of triglycerides, cholesterol and free fatty acids (FFA) content. Commercial kits were used to measure the levels of hepatic cholesterol (cholesterol RTU, Biomerieux), triglyceride (TG) (triglyceride PAP 150, Biomerieux), and fatty acid (NEFA-HR (2), Wako Chemicals) levels from liver homogenate. Results were then normalized to the weight of the sample.

[2] = tested on: high-fat diet-fed (HFD) mice; assay: Fasting plasma glycemia and insulin sensitivity in high-fat diet-fed (HFD) mice; type: in vivo
Experimental: Six-week-old male C57BI/6 mice were fed a high-fat diet or chow diet for 3 months. Then, HFD mice were treated orally with vehicle (Control HFD) or compound of formula (I) at 60 mg/kg twice daily for 4 weeks. Chow fed mice were treated orally with vehicle alone (Control CD). At completion of this treatment period, mice were fasted for 6 hours and blood glucose levels were assessed with a blood glucosemeter from blood samples collected from the tip of the tail vein.

[3] = tested on: HFD hamster; assay: Circulating lipids (FPLC lipoprotein profile) and insulin sensitivity in HFD hamster; type: in vivo
Experimental: Hamsters were fed a control chow diet with normal drinking water or high fat diet with 10% fructose drinking water over 30 days. After 16 days of high-fat diet, two groups of hamsters were treated orally with either vehicle (control HFD) or Compound of formula (I) twice daily for 14 days. Hamsters fed the chow diet were also treated orally for 14 days with vehicle BID (control CD). After the treatment period, hamsters were overnight fasted, blood samples were obtained from the retroorbital plexus. Plasma was immediately isolated by centrifugation and for each group, a 400 µL pool of plasma was made from the individual plasma samples. Lipoproteins were separated by fast performance liquid chromatography (FPLC). FPLC fractions were monitored for cholesterol levels.

[4] = tested on: β1-containing heterotrimers of human recombinant AMPK; assay: AMPK activation assay (phosphorylation of ACC1/1-120 at ser79, AlphaScreen), β1-containing heterotrimers; type: biochemical; details: two β1-containing heterotrimers; 100 µM ATP, room temperature, 60 minutes
Experimental: (§1) The compound of formula (I) was assayed in vitro to determine its EC50 against four different AMPK heterotrimers (two containing the β1 subunit and two containing the β2 subunit). AMPK activity was measured by the phosphorylation of the amino-terminal fragment of human acetyl CoA carboxylase-type 1, amino acids 1-120 (ACC1/1-120), at ser79. The fragment was expressed as a biotinylated fusion protein in E.coli. Human rAMPK genes were expressed in insect cells using baculovirus vectors or in the monkey COS7 cell expression systems. The compound was tested in triplicate at each of the following concentrations (µM): 45, 15, 5, 1.67, 0.56, 0.185, 0.06, 0.02 and 0.00685. A positive control comprising AMP (100 uM), and a negative control without enzyme, were used. The enzyme assay was conducted in a 5 µl reaction mixture containing compound of formula (I) at the indicated concentrations in 80 mM HEPES, pH7.0, 160 mM NaCl, 2.5 mM MgCl2, 1mM DTT, 0.05% Tween-20, 100 µM ATP with AMPK at 0.08 ng/µl and ACC1/1-120 at 0.004 ng/µl. […] The reaction mixture was further incubated overnight at RT and analyzed on a Perkin EImer Fusion-Alpha microplate analyzer. The AlphaScreen readout for this assay is based on an excitation with laser-stimulated visible light at 680 nm and emission at 520-620 nm.

[5] = tested on: β2-containing heterotrimers of human recombinant AMPK; assay: AMPK activation assay (phosphorylation of ACC1/1-120 at ser79, AlphaScreen), β2-containing heterotrimers; type: biochemical; details: two β2-containing heterotrimers; 100 µM ATP, room temperature, 60 minutes
Experimental: as §1

[6] = tested on: HFD mice; assay: Hepatic glucose production in HFD mice (hyperinsulinemic-euglycemic clamp); type: in vivo; details: for hepatic glucose production: orally 60 mg/kg twice daily for 40 days, under insulin stimulated states, p < 0.001 vs Control HFD, 60 mg/kg
Experimental: Six-week-old male C57BI/6 mice were fed a high-fat diet or chow diet for 3 months. Then, HFD mice were treated orally with vehicle (Control HFD) or compound of formula (I) at 60 mg/kg twice daily for 40 days. Chow fed mice were treated orally with vehicle alone (Control CD). Hepatic glucose production was assessed during a hyperinsulinemic-euglycemic clamp using a 12 mU/kg/min insulin infusion rate. Hyperinsulinemic-euglycemic clamps were performed in chronically cannulated awake free moving mice. Before the start of the clamp procedure mice were fasted for 6 hours. ^3H-glucose alone was then infused for 210 minutes to assess the basal whole body glucose turnover (= hepatic glucose output). The basal procedure started with D-[3-3H]glucose, which was infused (2µL/min, 30µCi/min/kg) for 90 minutes (time -60 to time 30 minutes). An euglycemic hyperinsulinemic 1 step insulin clamp was then performed from 30 minutes to 150 minutes, with a 12mU/kg/min insulin infusion. Glucose (16.5%) infusion rate was adjusted until steady-state blood glucose (120 mg/dL, ± 10 mg/dL) was achieved. Calculations for glucose turnover measurements were made from parameters obtained during the last 60 min of the infusions in steady-state condition, Briefly, the D-[3-3H]glucose-specific activity was calculated by dividing the D-[3-3H]glucose enrichment by the plasma glucose concentration. The whole-body glucose turnover rate was calculated by dividing the rate of D-[3-3H]glucose by the D-[3-3H]glucose plasma-specific activity. For each mouse, the mean values were calculated and averaged with values from mice of the same group.

[7] = HFD hamsters, orally twice daily for 14 days, FPLC of pooled plasma

## O=C(O)c1c[nH]c2ccc(-c3ccc(-c4c(O)cccc4O)cc3)cc12 [compound of formula (I), 5-(2',6'-dihydroxy-biphenyl-4-yl)-1H-indole-3-carboxylic acid]
[1]
  liver lipids content: reduced
[2]; orally 60 mg/kg twice a day
  decrease of fasting plasma glycemia: at least 17%
[2]; orally 60 mg/kg twice daily for 4 weeks, fasted for 6 hours, p <0.05 vs Control HFD
  blood glucose: significantly decreased
[2]; results not shown
  HOMA-IR decrease (insulin sensitivity): 43%
[3]; HFD hamster, results not shown
  HOMA-IR decrease (insulin sensitivity): 37%
[3]; [7]
  HDL total cholesterol levels: increased
  LDL total cholesterol levels: reduced
  VLDL total cholesterol levels: reduced
[4]
  EC50: < 500 nM
[5]
  EC50: < 5000 nM
[6]; orally 60 mg/kg twice a day, basal state
  decrease of hepatic glucose production: at least 34%
[6]
  hepatic glucose production: normalized
[6]; listed as Compound of formula (I)
  hepatic glucose production: blunted
